What was measured:
MMP-2 = experiment: Substrate phage display with NGS: relative probability (RP) of P3-P1' tetramer clusters; type: biochemical, human; details: for relative probability (RP) of matching tetramer: P3-P1' tetramer matching the MS detected MMP2 cleavage sequence, RP_above_4.5; for avg_RP: MMP2 - no binning, redundant tetramers have been averaged out; for MMP2 relative probability (RP): MMP2 tetramers from unique substrates, unrounded values
MMP-9 = experiment: as above; type: biochemical, human; details: for corresponding MMP9 relative probability (RP): MMP2 tetramers from unique substrates, RP of same tetramer for MMP9
[1] = MMP2, RP of matching P3-P1' tetramer, common set of MMP2-9 selectome, RP above KL threshold
[2] = RP of matching tetramer, common MMP2-9 selectome
[3] = MMP9, RP of matching P3-P1' tetramer, common set of MMP2-9 selectome
[4] = MMP9, RP of the P3-P1' tetramer matching the MS detected cleavage, RP above 4.7, substrate phage display with NGS
[5] = RP of matching tetramer, common MMP2-9 selectome, RP above KL threshold
[6] = RP of the P3-P1' tetramer cluster contained in the hexamer, 200 nM MMP-2, 2 h, 37°C, two rounds of selection
[7] = MMP9, RP of the P3-P1' tetramer contained in the hexamer substrate (substrate phage display, NGS)
[8] = RP of the P3-P1' tetramer, MMP2 substrate phage display/NGS, tetramers of physiologic MEROPS substrates common to MMP2 and MMP9
[9] = RP of the P3-P1' tetramer, MMP9 substrate phage display/NGS, tetramers of physiologic MEROPS substrates common to MMP2 and MMP9
[10] = normalized RP of matching tetramer, unique part of MMP2 selectome
[11] = RP according to MMP2, P3-P1' tetramer of unique physiologic MMP2 substrates from MEROPS
[12] = RP according to MMP9, P3-P1' tetramer of unique physiologic MMP9 substrates from MEROPS

## AKNL
MMP-2; [1]
  relative probability (RP) (acc.to MMP2): 16.7
MMP-2
  relative probability (RP) of matching tetramer: 16.7
MMP-2; [2]
  relative probability (RP) (acc.to MMP2): 16.7
MMP-9; [3]
  relative probability (RP) (acc.to MMP9): 32.82
MMP-9; [4]
  relative probability (RP): 32.82
MMP-9; [5]
  relative probability (RP) (acc.to MMP9): 32.82

## PSPADI
MMP-2; [6]
  relative probability (RP): 23.2522
MMP-9; [7]
  relative probability (RP): 25.0899

## PLQLQT
MMP-2; [6]
  relative probability (RP): 30.1017
MMP-9; [7]
  relative probability (RP): 45.7856

## LREL
MMP-2; [1]
  relative probability (RP) (acc.to MMP2): 21.53
MMP-2
  relative probability (RP) of matching tetramer: 21.53
MMP-2; [2]
  relative probability (RP) (acc.to MMP2): 21.53
MMP-9; [3]
  relative probability (RP) (acc.to MMP9): 21.21
MMP-9; [4]
  relative probability (RP): 21.21
MMP-9; [5]
  relative probability (RP) (acc.to MMP9): 21.21

## PVNMTD
MMP-2; [6]
  relative probability (RP): 30.0312
MMP-9; [7]
  relative probability (RP): 44.4072

## PHGLAT
MMP-2; [6]
  relative probability (RP): 32.9009
MMP-9; [7]
  relative probability (RP): 46.2798

## PLSL
MMP-2; average relative probability of the P3-P1' tetramer
  avg_RP: 33.5282
MMP-2; [2]
  relative probability (RP) (acc.to MMP2): 33.53
MMP-9; [4]
  relative probability (RP): 48.17
MMP-9; [5]
  relative probability (RP) (acc.to MMP9): 48.17

## PTPKAL
MMP-2; [6]
  relative probability (RP): 34.4858
MMP-9; [7]
  relative probability (RP): 48.3581

## RPEDLR
MMP-2; [6]
  relative probability (RP): 6.012
MMP-9; [7]
  relative probability (RP): 13.0748

## PPGL [P3-P1' tetramer cluster]
MMP-2; [8]
  relative probability (RP) (acc.to MMP2): 24.36
MMP-9; [9]
  relative probability (RP) (acc.to MMP9): 34.4
MMP-9; tetramer projected onto MMP-9 cleavage sites determined by Prudova et al. (2010)
  relative probability (RP): 34.4

## MGPLGQ
MMP-2; [6]
  relative probability (RP): 28.8115
MMP-9; [7]
  relative probability (RP): 44.3652

## PAPNSL
MMP-2; [6]
  relative probability (RP): 24.6338
MMP-9; [7]
  relative probability (RP): 34.9686

## PSKL
MMP-2; average relative probability (RP) of the P3-P1' tetramer
  avg_RP: 32.2205
MMP-2; [1]
  relative probability (RP) (acc.to MMP2): 32.22
MMP-2
  relative probability (RP) of matching tetramer: 32.22
MMP-2; [2]
  relative probability (RP) (acc.to MMP2): 32.22
MMP-9; [3]
  relative probability (RP) (acc.to MMP9): 38.96
MMP-9; [4]
  relative probability (RP): 38.96
MMP-9; [5]
  relative probability (RP) (acc.to MMP9): 38.96

## KSPLRQ
MMP-2; [6]
  relative probability (RP): 11.8624
MMP-9; [7]
  relative probability (RP): 29.0862

## IPLASL
MMP-2; [6]
  relative probability (RP): 31.1996
MMP-9; [7]
  relative probability (RP): 34.6637

## PRGVKG
MMP-2; [6]
  relative probability (RP): 29.4971
MMP-9; [7]
  relative probability (RP): 42.1832

## GPALSY
MMP-2; [6]
  relative probability (RP): 14.6475
MMP-9; [7]
  relative probability (RP): 25.6531

## PQGLAG
MMP-2; [6]
  relative probability (RP): 33.5241
MMP-9; [7]
  relative probability (RP): 47.8621

## VHPSAV
MMP-2; [6]
  relative probability (RP): 29.6865
MMP-9; [7]
  relative probability (RP): 36.5372

## IDNL
MMP-2
  relative probability (RP) of matching tetramer: 4.88
MMP-2; RP of matching tetramer, unique part of MMP2 selectome, RP above KL threshold
  relative probability (RP) (acc.to MMP2): 4.88
MMP-2; [10]
  normalized RP - MMP2: 0.1336
MMP-9; RP of matching tetramer, unique part of MMP2 selectome
  relative probability (RP) (acc.to MMP9): 0.5
MMP-9; [10]
  normalized RP - MMP9: 0.009546

## PGGV
MMP-2; MMP9 tetramers from unique substrates, RP of same tetramer for MMP2
  corresponding MMP2 relative probability (RP): 10.6032
MMP-9; MMP9 tetramers from unique substrates, unrounded values
  MMP9 relative probability (RP): 2.434

## IAFL
MMP-2; [1]
  relative probability (RP) (acc.to MMP2): 22.55
MMP-2
  relative probability (RP) of matching tetramer: 22.55
MMP-9; [3]
  relative probability (RP) (acc.to MMP9): 10.97

## PVLL
MMP-2; [1]
  relative probability (RP) (acc.to MMP2): 15.16
MMP-2
  relative probability (RP) of matching tetramer: 15.16
MMP-2; [2]
  relative probability (RP) (acc.to MMP2): 15.16
MMP-9; [3]
  relative probability (RP) (acc.to MMP9): 19.22
MMP-9; [4]
  relative probability (RP): 19.22
MMP-9; [5]
  relative probability (RP) (acc.to MMP9): 19.22

## VPQEWR
MMP-2; [6]
  relative probability (RP): 10.5981
MMP-9; [7]
  relative probability (RP): 10.1914

## AAAL
MMP-2; [1]
  relative probability (RP) (acc.to MMP2): 31.4
MMP-2
  relative probability (RP) of matching tetramer: 31.4
MMP-2; [2]
  relative probability (RP) (acc.to MMP2): 31.4
MMP-2; tetramer annotation of MMP-2 cleavage sites in all substrates from MEROPS
  relative probability (RP): 31.4
MMP-9; [3]
  relative probability (RP) (acc.to MMP9): 32.12
MMP-9; [4]
  relative probability (RP): 32.12
MMP-9; [5]
  relative probability (RP) (acc.to MMP9): 32.12

## PSLQ
MMP-2
  MMP2 relative probability (RP): 7.654
MMP-2; [11]
  Relative probability (RP) rank: 6015
  relative probability (RP): 7.65
MMP-2; [8]
  relative probability (RP) (acc.to MMP2): 7.65
MMP-9
  corresponding MMP9 relative probability (RP): 1.544
MMP-9; [12]
  Relative probability (RP) rank: 11624
  relative probability (RP): 1.54
MMP-9; [9]
  relative probability (RP) (acc.to MMP9): 1.54

## AKAL
MMP-2; [1]
  relative probability (RP) (acc.to MMP2): 22.96
MMP-2
  relative probability (RP) of matching tetramer: 22.96
MMP-2; [2]
  relative probability (RP) (acc.to MMP2): 22.96
MMP-9; [3]
  relative probability (RP) (acc.to MMP9): 37.29
MMP-9; [4]
  relative probability (RP): 37.29
MMP-9; [5]
  relative probability (RP) (acc.to MMP9): 37.29

## PREL
MMP-2; [2]
  relative probability (RP) (acc.to MMP2): 31.95
MMP-9; [4]
  relative probability (RP): 44.67
MMP-9; [5]
  relative probability (RP) (acc.to MMP9): 44.67

## PGPIGI
MMP-2; [6]
  relative probability (RP): 31.281
MMP-9; [7]
  relative probability (RP): 46.0584

## PIQLQS
MMP-2; [6]
  relative probability (RP): 19.2979
MMP-9; [7]
  relative probability (RP): 35.2784

## QPPLPL
MMP-2; [6]
  relative probability (RP): 35.0814
MMP-9; [7]
  relative probability (RP): 49.0268

## VGEY
MMP-2
  MMP2 relative probability (RP): 13.6759
MMP-2; [11]
  Relative probability (RP) rank: 3547
  relative probability (RP): 13.68
MMP-9
  corresponding MMP9 relative probability (RP): 0.1188
